In the experiment the target is T1, recombinant human GR (Homo sapiens, UniProt P04150).
T1 construct: purchased Panvera/Invitrogen P2812 (kit P2893)
T1 sequence (P04150 1-777): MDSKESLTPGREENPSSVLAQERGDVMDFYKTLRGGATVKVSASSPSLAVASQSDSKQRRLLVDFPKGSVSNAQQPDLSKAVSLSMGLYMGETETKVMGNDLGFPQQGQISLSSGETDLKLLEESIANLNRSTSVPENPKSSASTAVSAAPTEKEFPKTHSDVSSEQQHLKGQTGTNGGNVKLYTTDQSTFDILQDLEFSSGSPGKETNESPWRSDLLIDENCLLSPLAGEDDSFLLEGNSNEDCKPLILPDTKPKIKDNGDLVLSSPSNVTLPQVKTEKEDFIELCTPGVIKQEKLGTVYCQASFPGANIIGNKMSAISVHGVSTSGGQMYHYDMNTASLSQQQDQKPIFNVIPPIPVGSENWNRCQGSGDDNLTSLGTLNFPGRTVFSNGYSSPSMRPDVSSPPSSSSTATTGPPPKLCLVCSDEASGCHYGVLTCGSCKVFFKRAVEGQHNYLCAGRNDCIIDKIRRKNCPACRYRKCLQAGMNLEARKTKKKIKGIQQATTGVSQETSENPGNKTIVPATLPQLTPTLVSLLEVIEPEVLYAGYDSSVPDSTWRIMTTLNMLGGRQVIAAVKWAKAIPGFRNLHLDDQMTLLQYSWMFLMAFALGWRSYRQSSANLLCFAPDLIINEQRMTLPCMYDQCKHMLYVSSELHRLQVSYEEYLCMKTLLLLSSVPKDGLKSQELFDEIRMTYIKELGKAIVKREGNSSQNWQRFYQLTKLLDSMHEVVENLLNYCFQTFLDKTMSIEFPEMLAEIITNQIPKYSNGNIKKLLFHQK
In words: Human Glucocorticoid Receptor (GR) Assay, fluorescence polarization. Type of experiment: binding. The settings on record: GS Red tracer, incubated 2 h at r.t., XLfit model 205, read-out: GRhuFL_FP_v2 Mean IC50. The method in brief:
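Fluorescence polarization kit assay: recombinant GR and GS Red fluorescent ligand with Stabilizing Peptide and DTT in potassium phosphate/sodium molybdate/EDTA screening buffer. Plates incubated 2 h in the dark at r.t.; DMSO served as 0% and dexamethasone as 100% control.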

SMILES strings stand for the structures.

Usually IC50 stands for the midpoint of a concentration-inhibition curve. As to `Cc1ccc(C)c([C@@H](Oc2ccc3c(cnn3-c3ccc(F)cc3)c2)[C@H](C)NC(=O)C(C)(C)F)c1` [Example 244, N-[(1R,2S)-1-(2,5-dimethylphenyl)-1-[1-(4-fluorophenyl)indazol-5-yl]oxy-propan-2-yl]-2-fluoro-2-methyl-propanamide], the IC50 was 8.3 nM.

Take `Cc1ccc([C@@H](Oc2ccc3c(cnn3-c3ccc(F)cc3)c2)[C@H](C)NC(=O)C(C)(C)CO)cc1F` [Example 252, N-[(1R,2S)-1-(3-fluoro-4-methyl-phenyl)-1-[1-(4-fluorophenyl)indazol-5-yl]oxy-propan-2-yl]-3-hydroxy-2,2-dimethyl-propanamide]: the half-inhibitory concentration (IC50) worked out at 4.7 nM.

For `Cc1cccc([C@@H](Oc2ccc3c(cnn3-c3ccc(F)cc3)c2)[C@H](C)NC(=O)C2(C)CC2)c1` [Example 225, N-[(1R,2S)-1-[1-(4-fluorophenyl)indazol-5-yl]oxy-1-(3-methylphenyl)propan-2-yl]-1-methyl-cyclopropane-1-carboxamide], the IC50 came out at 4.8 nM.

As to `Cc1cnc(C(=O)N[C@@H](C)[C@H](Oc2ccc3c(cnn3-c3ccc(F)cc3)c2)c2cccc(Cl)c2)s1` [Example 199, N-[(1R,2S)-1-(3-chlorophenyl)-1-[1-(4-fluorophenyl)indazol-5-yl]oxy-propan-2-yl]-5-methyl-1,3-thiazole-2-carboxamide], the IC50 was found to be 7.4 nM.

In the case of `COCC(=O)N[C@@H](CC(C)C)[C@H](Oc1ccc2c(cnn2-c2ccc(F)cc2)c1)c1cccc(F)c1` [Example 109, N-{(1S)-1-[(R)-(3-Fluorophenyl)-{[1-(4-fluorophenyl)-1H-indazole-5-yl]oxy}methyl]-3-methyl-butyl}-2-methoxyacetamide], the IC50 was 23 nM.

On to `C[C@H](NC(=O)C(F)(F)F)[C@H](Oc1ccc2c(cnn2-c2cccc(CO)c2)c1)c1ccccc1` [Example 144, 2,2,2-trifluoro-N-((1R,2S)-1-(1-(3-(hydroxymethyl)phenyl)-1H-indazol-5-yloxy)-1-phenylpropan-2-yl)acetamide], for which the IC50 was 3 nM.

Turning to `C[C@H](NC(=O)CO)[C@H](Oc1ccc2c(cnn2-c2ccc(F)cc2)c1)c1ccc(C(F)(F)F)cc1` [Example 60, N-[(1R,2S)-1-[1-(4-fluorophenyl)indazol-5-yl]oxy-1-[4-(trifluoromethyl)phenyl]propan-2-yl]-2-hydroxy-acetamide], the IC50 stood at 3.3 nM.

Regarding `C[C@H](NC(=O)C1(C)CC1)[C@H](Oc1ccc2c(cnn2-c2ccc(F)cc2)c1)c1ccc(F)c(F)c1` [Example 212, N-[(1R,2S)-1-(3,4-difluorophenyl)-1-[1-(4-fluorophenyl)indazol-5-yl]oxy-propan-2-yl]-1-methyl-cyclopropane-1-carboxamide], the half-maximal inhibitory concentration (IC50) is 5.2 nM.

Take `Cc1ccc([C@@H](Oc2ccc3c(cnn3-c3ccc(F)cc3)c2)[C@H](C)NC(=O)C2(C)CC2)c(C)c1` [Example 216, N-[(1R,2S)-1-(2,4-dimethylphenyl)-1-[1-(4-fluorophenyl)indazol-5-yl]oxy-propan-2-yl]-1-methyl-cyclopropane-1-carboxamide]: the 50% inhibitory concentration (IC50) was found to be 4.7 nM.

For the compound `Cc1cc([C@@H](Oc2ccc3c(cnn3-c3ccc(F)cc3)c2)[C@H](C)NC(=O)C(F)(F)F)ccc1Cl` [Example 168, N-[(1R,2S)-1-(4-chloro-3-methyl-phenyl)-1-[1-(4-fluorophenyl)indazol-5-yl]oxy-propan-2-yl]-2,2,2-trifluoro-acetamide], the concentration for half-maximal inhibition (IC50) came out at 6.2 nM.

With `COc1cccc([C@@H](Oc2ccc3c(cnn3-c3ccc(F)cc3)c2)[C@H](C)NC(=O)c2cc(C)on2)c1` [Example 136, N-[(1R,2S)-1-[1-(4-fluorophenyl)indazol-5-yl]oxy-1-(3-methoxyphenyl)propan-2-yl]-5-methyl-1,2-oxazole-3-carboxamide], the half-inhibitory concentration (IC50) was found to be 3 nM.

On to `C[C@H](NC(=O)C(F)(F)F)[C@@H](COc1ccccc1)Oc1ccc2c(cnn2-c2ccc(F)cc2)c1` (single isomer, unassigned) [Example 68, 2,2,2-Trifluoro-N-[(2S*,3S*)-3-[1-(4-fluorophenyl)indazol-5-yl]oxy-4-phenoxy-butan-2-yl]acetamide], for which the IC50 stood at 1.7 nM.

As to `C[C@H](NC(=O)C1(C)CC1)[C@H](Oc1ccc2c(cnn2-c2ccc(F)cc2)c1)c1cccc(F)c1` [Example 214, N-[(1R,2S)-1-(3-fluorophenyl)-1-[1-(4-fluorophenyl)indazol-5-yl]oxy-propan-2-yl]-1-methyl-cyclopropane-1-carboxamide], the IC50 stood at 4.5 nM.

With `C[C@H](NC(=O)NC1CCCC1)[C@H](Oc1ccc2c(cnn2-c2ccc(F)cc2)c1)c1ccccc1` [Example 104], the IC50 turned out to be 3.6 nM.

With `Cc1ccc([C@@H](Oc2ccc3c(cnn3-c3ccc(F)cc3)c2)[C@H](C)NC(=O)C(C)(C)F)c(C)c1` [Example 245, N-[(1R,2S)-1-(2,4-dimethylphenyl)-1-[1-(4-fluorophenyl)indazol-5-yl]oxy-propan-2-yl]-2-fluoro-2-methyl-propanamide], the half-inhibitory concentration (IC50) came to 5.5 nM.

Turning to `COCC(=O)N[C@@H](CO)C(Oc1ccc2c(cnn2-c2ccc(F)cc2)c1)c1cccc(F)c1` (mixture of isomers) [Example 113, N-[(1S)-2-(3-Fluorophenyl)-2-{[1-(4-fluorophenyl)-1H-indazol-5-yl]oxy}-1-(hydroxymethyl)ethyl]-2-methoxyacetamide], the IC50 amounted to 24 nM.

Turning to `CC(C)(C)C(=O)NC(C(Oc1ccc2c(cnn2-c2ccc(F)cc2)c1)c1ccccc1)C(F)(F)F` (single isomer, unassigned) [Example 147D2E1, N-(1,1,1-trifluoro-3-(1-(4-fluorophenyl)-1H-indazol-5-yloxy)-3-phenylpropan-2-yl)pivalamide], the IC50 amounted to 7.4 nM.

Take `COc1cccc([C@@H](Oc2ccc3c(cnn3-c3ccc(F)cc3)c2)[C@H](C)NC(=O)C(C)C)c1` [Example 55, N-[(1R,2S)-1-[1-(4-fluorophenyl)indazol-5-yl]oxy-1-(3-methoxyphenyl)propan-2-yl]-2-methyl-propanamide]: the half-inhibitory concentration (IC50) was 3.3 nM.

As for `C[C@H](NC(=O)C1(O)CC1)[C@H](Oc1ccc2c(cnn2-c2ccc(F)cc2)c1)c1ccc(C(F)(F)F)cc1` [Example 139, N-[(1R,2S)-1-[1-(4-fluorophenyl)indazol-5-yl]oxy-1-[4-(trifluoromethyl)phenyl]propan-2-yl]-1-hydroxy-cyclopropane-1-carboxamide], the IC50 was 4.1 nM.

Consider `C[C@H](NC(=O)CCl)[C@H](Oc1ccc2c(cnn2-c2ccc(F)cc2)c1)c1ccccc1` [Example 38, 2-Chloro-N-[(1R,2S)-1-[1-(4-fluorophenyl)indazol-5-yl]oxy-1-phenyl-propan-2-yl]acetamide], for which the half-maximal inhibitory concentration (IC50) stood at 2.4 nM.

For the compound `C[C@H](NC(=O)C(F)(F)F)[C@H](Oc1ccc2c(cnn2-c2ccc(CN(C)C)cc2)c1)c1ccccc1` [Example 143, N-((1R,2S)-1-(1-(4-((dimethylamino)methyl)phenyl)-1H-indazol-5-yloxy)-1-phenylpropan-2-yl)-2,2,2-trifluoroacetamide], the IC50 came to 23 nM.

Turning to `C[C@H](NC(=O)C(C)(C)F)[C@H](Oc1ccc2c(cnn2-c2ccc(F)cc2)c1)c1cccc(Cl)c1` [Example 247, N-[(1R,2S)-1-(3-chlorophenyl)-1-[1-(4-fluorophenyl)indazol-5-yl]oxy-propan-2-yl]-2-fluoro-2-methyl-propanamide], the IC50 turned out to be 4.4 nM.

Turning to `C[C@H](NC(=O)C(F)(F)F)[C@H](Oc1ccc2c(cnn2-c2ccc(F)cc2)c1)c1cccc(Cl)c1` [Example 155, N-[(1R,2S)-1-(3-chlorophenyl)-1-[1-(4-fluorophenyl)indazol-5-yl]oxy-propan-2-yl]-2,2,2-trifluoro-acetamide], the IC50 worked out at 5 nM.

On to `C[C@H](NC(=O)C(F)(F)F)[C@H](Oc1ccc2c(cnn2-c2ccc(F)cc2)c1)c1ccc2c(c1)OCO2` [Example 166, N-[(1R,2S)-1-benzo[1,3]dioxol-5-yl-1-[1-(4-fluorophenyl)indazol-5-yl]oxy-propan-2-yl]-2,2,2-trifluoro-acetamide], for which the IC50 was 6.9 nM.

Consider `COc1cccc([C@@H](Oc2ccc3c(cnn3-c3ccc(F)cc3)c2)[C@H](C)NC(=O)c2sc(C(F)(F)F)cc2O)c1` [Example 298, N-[(1R,2S)-1-[1-(4-fluorophenyl)indazol-5-yl]oxy-1-(3-methoxyphenyl)propan-2-yl]-3-hydroxy-5-(trifluoromethyl)thiophene-2-carboxamide], for which the IC50 is 15 nM.

Regarding `Cc1ccc([C@@H](Oc2ccc3c(cnn3-c3ccc(F)cc3)c2)[C@H](C)NC(=O)C(F)(F)F)c(C)c1` [Example 154, N-[(1R,2S)-1-(2,4-dimethylphenyl)-1-[1-(4-fluorophenyl)indazol-5-yl]oxy-propan-2-yl]-2,2,2-trifluoro-acetamide], the IC50 worked out at 4.7 nM.
